For the test, the system named is MX-1 breast xenograft, nude mice, tumor weight T/C. Briefly: NCI In Vivo Anticancer Drug Screen. Data for tumor model Human Mammary Carcinoma MX-1 Xenograft (intrarenal inoculation) in NU/NU Swiss (nude) mice. The settings on record: endpoint: mean tumor weight change, schedule: Q04DX003 (sc), higher = larger tumour. The method in brief: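 Compound dosed to mice with transplantable tumor; vehicle group as control. Endpoint survival or tumour size, reported as T/C.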
In general terms: Xenograft models place foreign cells or tissue in a host animal.

Results filed as inconclusive are left out.

Consider `CC1=C2CC(C)(C)/C=C\C(=O)/C(C)=C\C3=C[C@H](C)C[C@]3(O2)C1=O`, for which the T/C reads like this: (dose: 12.5 mg/kg/injection, vehicle: Klucel (hydroxypropylcellulose) (HPC)) 84 % of control; (dose: 25.0 mg/kg/injection, vehicle: Klucel (hydroxypropylcellulose) (HPC)) 100 % of control; (dose: 50.0 mg/kg/injection, vehicle: Klucel (hydroxypropylcellulose) (HPC)) 82 % of control.

On to `CC(Oc1ccccc1-c1ccccc1)C(=O)N(C)C` (configuration not stated), for which the T/C is 82 % of control (dose: 300.0 mg/kg/injection, vehicle: saline with Tween-80); 102 % of control (dose: 600.0 mg/kg/injection, vehicle: saline with Tween-80); 114 % of control (dose: 1200.0 mg/kg/injection, vehicle: saline with Tween-80); 60 % of control (dose: 2400.0 mg/kg/injection, vehicle: saline with Tween-80).

Source of the values: PubChem BioAssay AID296 (DTP/NCI, 2004).
